experiment: gradient 5% acetonitrile 3 min, to 50% in 2 min, to 85% in 15 min, held 3 min, 100 µL/min; conditions: column: Zorbax Extend-C18 2.1 x 50 mm; eluents: water / acetonitrile, 0.1% formic acid
Method in brief: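 The mobile phases were water and acetonitrile, each with 0.1% formic acid, pumped at 100 μL/min through a Zorbax Extend-C18 column (2.1 × 50 mm, 1.8 μm). Pure standards were injected as mixtures of ~100 molecules and detected by a quadrupole time-of-flight mass spectrometer in positive and negative ionization mode. Retention time came from computationally picked adduct peaks, each inspected by hand.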

Row | RP-LC retention time [s] | SMILES
1 | 700 | O=C1NCCCCCCN(Cc2ccc(C(F)(F)F)cc2)[C@H]2CCC[C@@H]12
2 | 768 | COCCC1CCN(C(=O)COc2ccc(OC)cc2)CC1
3 | 594 | Cc1cnc(C2CC2)n1CCNC(=O)C1CC(=O)N(C2CCCCC2)C1 (stereo not given)
4 | 794 | O=C(CSc1nnc2c3sc(N4CCCC4)nc3ncn12)Nc1ccc(F)cc1
5 | 796 | Cc1nn2c(CNC(=O)c3ccccn3)c(-c3ccccc3)nc2s1
6 | 681 | COc1ccc(S(=O)(=O)N2CCCC(C(=O)N3CCOCC3)C2)cc1OC (stereo not given)
7 | 706 | CCOC(=O)c1c(S(=O)(=O)N2CCC(C(=O)N3CCCC3)CC2)c(C)n(C)c1C
8 | 1430 | Cc1cccc(OCc2nc(-c3cccc(-c4csc(C5CC5)n4)c3)no2)c1
9 | 936 | CCc1ccc(C(=O)Nc2ccc3c(c2)Sc2ncccc2C(=O)N3CC)cc1
10 | 648 | O=C(Cc1ccsc1)Nc1ccc(-c2nnc3n2CCCC3)cc1
11 | 971 | Cc1[nH]c(C(=O)Nc2cccc(Br)c2)c(C)c1S(=O)(=O)N1CCCC1
12 | 719 | Cc1ccc(NC(=O)N2CCCC(Cn3cnc4cccnc43)C2)cc1C (stereo not given)
13 | 758 | Cc1cccc(S(=O)(=O)Nc2ccc3c(c2)CCC(=O)N3C)c1
14 | 570 | CN(C)CC1(O)CCC2(CCN(C(=O)c3ccoc3)CC2)CC1
15 | 967 | COC(=O)c1ccc2c(=O)n(-c3ccc(F)c(Cl)c3)c(N3CCOCC3)nc2c1
16 | 756 | O=S(=O)(c1cccc(Cl)c1)N1CCN(c2cnn3c(C4CC4)nnc3c2)CC1
17 | 1190 | O=c1c2cc(-c3ccc(Cl)cc3)nn2ccn1Cc1nc(-c2cccc(F)c2)no1
18 | 694 | Cc1cccc(NS(=O)(=O)c2cc3n(c2)CCN(C)C3=O)c1C
19 | 768 | COc1ccc(NC(=O)N2CCC(n3c(C(F)(F)F)nc4cccnc43)CC2)c(OC)c1
20 | 974 | O=C(NCc1cccc(Cl)c1)c1cc(C2CC2)n2nccc2n1
21 | 708 | CC(=O)Nc1ccc(C(=O)N2CCN(c3cc(-c4ccc(Cl)cc4)[nH]n3)CC2)cc1
22 | 1030 | Clc1ccc(Sc2c(-c3ccccc3)nc3ncccn23)cc1
23 | 893 | CCOC(=O)c1c(C)[nH]c(C(=O)N2CCCC(C(=O)NCCC3=CCCCC3)C2)c1C (stereo not given)

Row | RP-LC retention time [s] | SMILES
24 | 814 | Cc1ccc(-n2cc3c(N4CCCC(C(=O)NC(C)c5ccc(C)cc5C)C4)ncnc3n2)cc1 (stereo not given)
25 | 662 | CNC(=O)[C@H](Cc1c[nH]c2ccccc12)NC(=O)[C@@H](CC(=O)NO)CC(C)C
26 | 1070 | CC(C)(C)C(=O)Nc1cnc(-c2cccc(Cl)c2)nc1
27 | 747 | O=C(CN1C(=O)COc2ccc(C(=O)N3CCCC3)cc21)NCCCc1ccccc1
28 | 1070 | Cc1nc(-c2ccccc2)nc2c1CC(=O)N2Cc1cccs1
29 | 988 | Cc1ccc(S(=O)(=O)CC(=O)Nc2nc(-c3ccc(F)cc3)cs2)cc1
30 | 675 | Cc1oc(C2CCN(C(=O)Nc3ccc4c(c3)OCCO4)CC2)nc1C(=O)N(C)C
31 | 726 | COC(=O)c1c(C)[nH]c(C(=O)N2CCCC(C(=O)N(C)Cc3ccco3)C2)c1C (stereo not given)
32 | 657 | CCOc1ccccc1NC(=O)c1cn2c(n1)CCCC2
33 | 747 | Cc1nc(C#Cc2cccnc2)cs1
34 | 693 | Cc1nc(N2CCN(CCO)CC2)nc2c1C(=O)CC(c1cccc(Cl)c1)C2 (stereo not given)
35 | 619 | CC1OC2(CS1)CN1CCC2CC1 (stereo not given)
36 | 887 | COc1cccc(CN2N=C(C(=O)N3CCOCC3)S(=O)(=O)c3ccc(Cl)cc32)c1
37 | 911 | Cc1ccc(NC(=O)N2CCC(n3cnc4cc(Cl)ccc4c3=O)CC2)cc1C
38 | 817 | COCCC(=O)N1CCCN(C2=NS(=O)(=O)C(c3ccc(C(C)C)cc3)=C2C)CC1
39 | 736 | Cc1cccc(-c2nnc(C)c(NCc3ccc(C)o3)n2)c1
40 | 863 | Cc1ccc(N2CCN(c3ncc(C(=O)O)c(C)n3)CC2)cc1
41 | 1250 | CCOc1ccc(-c2cc3c(=O)n(Cc4nc(-c5cccc(C(F)(F)F)c5)no4)ncn3n2)cc1
42 | 1090 | CCc1ccc(-c2noc(Cn3c(=O)n(-c4ccccc4)c(=O)c4sccc43)n2)cc1
43 | 824 | O=C(c1ccc(F)c(Cl)c1)N(CC1CCOC1)C1CC1 (stereo not given)
44 | 586 | OC[C@@H]1CN(Cc2cn[nH]c2-c2ccc(F)cc2)C[C@H]1c1ccccn1
45 | 720 | CCOc1ccc(NC(=O)C2(CC)CCCCC(=O)N2)cc1 (stereo not given)
46 | 919 | Cn1c(C(=O)Nc2ccccc2F)cc2c(=O)oc3ccccc3c21

Row | RP-LC retention time [s] | SMILES
47 | 767 | CCOc1ccc2nc(C(=O)Nc3ccc(N4CCOCC4)cc3)cn2n1
48 | 857 | CCN(CC)C(=O)CN1C(=O)C2(NC(C)C3C(=O)N(Cc4ccccc4)C(=O)C32)c2ccccc21 (stereo not given)
49 | 579 | CN(C)c1ccc(CNC(=O)c2cc3c(=O)n(C)ccc3n2C)cc1
50 | 908 | CCC(C)NC(=O)C1CCCN(c2nccn3nc(-c4ccc(C)cc4C)cc23)C1 (stereo not given)
51 | 981 | O=C(Nc1nc(-c2ccc(Cl)cc2Cl)cs1)c1ccno1
52 | 986 | Cc1cccc(N2CCN([C@H]3CS(=O)(=O)C[C@@H]3S(=O)(=O)c3ccc(F)c(C)c3)CC2)c1
53 | 989 | CCOC(=O)c1ccccc1NC(=O)Cn1nc2ccc(-c3ccc(Cl)cc3)nn2c1=O
54 | 812 | CCN1C(=O)C(C)(C(=O)NCc2ccccc2)Oc2cccnc21 (stereo not given)
55 | 714 | CCOc1ccc(-n2nnnc2CNC(=O)NCc2cccs2)cc1
56 | 822 | CCN1c2cc(C(=O)NCc3cccs3)ccc2C(=O)N2CCCCC21 (stereo not given)
57 | 591 | CC(C)COc1cc(=O)n2c(c1C(=O)N1CCN(c3ccccn3)CC1)CCCCC2
58 | 752 | COc1ccccc1C(=O)N1CCC2(CC1)NC(=O)c1cc(F)ccc1N2C
59 | 718 | CCC(C)NC(=O)c1ccc(-c2nnc3ccc(NC(=O)C4CC4)cn23)cc1 (stereo not given)
60 | 1290 | Cc1ccc(Sc2nccnc2N2CCCC(C(=O)Nc3ccc(C)c(C)c3)C2)cc1 (stereo not given)
61 | 746 | COc1cccc(C(=O)N2CCC3(CC2)NC(=O)c2ccc(Cl)cc2N3)c1
62 | 758 | O=c1ccc(-c2ccc(F)cc2)nn1CCc1nc(-c2ccncc2)no1
63 | 1150 | Cc1ccc(-c2cc3c(N4CCCC(C(=O)NCCC5=CCCCC5)C4)nccn3n2)c(C)c1 (stereo not given)
64 | 671 | COc1ccc2oc(-c3noc(C(=O)NCCCN4CCCC4)n3)c(C)c2c1
65 | 675 | Cn1cnc(S(=O)(=O)N2CCC(C(=O)Nc3ccccc3)CC2)c1
66 | 642 | COc1cc(C(=O)Nc2cccc(-c3cn4cccnc4n3)c2)cc(OC)c1OC
67 | 650 | CCN(CC)CCNC(=O)c1ccc2cnn(Cc3ccc(F)cc3)c2c1
68 | 856 | NS(=O)(=O)c1ccc(Nc2ccccc2)c([N+](=O)[O-])c1
69 | 887 | COc1ccc(OC)c(-c2cn3ccn(-c4ccc(Cl)cc4)c(=O)c3n2)c1

Row | RP-LC retention time [s] | SMILES
70 | 561 | CNC(=O)c1cc(C)nc2ccc(C)cc12
71 | 776 | Cc1ccc(CN2CCN(C3CCN(C(=O)Nc4ccc(F)cc4)CC3)C(=O)C2=O)cc1
72 | 1120 | COc1ccccc1-c1nc(Cn2nnc(-c3nc(-c4ccccc4Cl)no3)c2C)c(C)o1
73 | 586 | O=C(Cn1cnc2ccccc21)N1CCN(Cc2nc(-c3ccc(F)cc3)cs2)CC1
74 | 758 | O=C(NCCc1c[nH]c2ccccc12)C1CC(=O)N(CCc2ccccc2)C1 (stereo not given)
75 | 845 | CCOC(=O)c1c(C)c(CCC(=O)NC(C)c2ccc3c(c2)OCCO3)n(C)c1C (stereo not given)
76 | 610 | Cc1ccc2cc(CCC(=O)N3CCN(C4CCCCC4)CC3)c(=O)[nH]c2c1
77 | 895 | O=C(Cn1c(=O)n(C2CCCCC2)c2ncccc21)NCc1ccccc1
78 | 776 | Cc1cccc(C)c1NC(=O)C1CCCN(c2nnc(C)c3c(C)n(-c4ccccc4)nc23)C1 (stereo not given)
79 | 864 | CC(C)CNC(=O)NC(C(=O)N1CCc2ccccc21)c1ccccc1 (stereo not given)
80 | 721 | O=C(Cn1cnc2nc3c(cc2c1=O)CCCC3)Nc1cccc(F)c1
81 | 807 | Cn1c(=O)c2c(nc(Oc3ccccc3)n2C)n(C)c1=O
82 | 935 | Cc1cc(C)cc(OCCNS(=O)(=O)c2cccs2)c1
83 | 777 | CCCNC(=O)c1cn(-c2ccc(-c3nc(CC)no3)cn2)cn1
84 | 585 | O=C(Cn1c(CO)cnc1SCc1ccc(Cl)c(Cl)c1)NC1CC1
85 | 572 | CCN1CCN(c2cc(C)c3cc(NC(=S)NC4CCCC4)ccc3n2)CC1
86 | 779 | CCn1nc(C)n2cc(S(=O)(=O)NCc3ccco3)cc2c1=O
87 | 910 | O=C(COc1ccc(Cl)cc1)NCC(=O)N1CCCc2ccccc21
88 | 704 | Cc1cccn2cc(C(=O)NCc3ccccc3Cl)nc12
89 | 958 | c1ccc(-c2noc(-c3nc(-c4ccccn4)no3)n2)cc1
90 | 1140 | Cc1ccc(Sc2nccnc2N2CCCC(C(=O)Nc3ccc(F)cc3C)C2)cc1 (stereo not given)

From the METLIN SMRT retention time set (Domingo-Almenara et al. 2019)
